Data as given in patent US11352350B2, “IRAK degraders and uses thereof” (Kymera Therapeutics, Inc., priority 2018, dated 2022).
Read-outs that look alike come from different tables or passages of the source.

How the values were obtained:
OCI-LY10 = test: CTG Cell Viability Assay - OCI-LY10; format: cell-based, human; details: OCI-LY10, 4 days, read-out: CTG Cell Viability Assay - OCI-LY10: Average external-IC50
Summary of the method: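 Viability read by CellTiter-Glo luminescence after 4 days at 37° C under 5% CO2 with compound (top 10 μM final, 1:3 steps, 9 doses, DMSO 0.2%). Three-parameter logistic fit gave IC50.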

IRAK4 = IRAK4 (Homo sapiens (Human), UniProt Q9NWZ3); test: IRAK4 MSD degradation in OCI-LY10; format: cell-based; details: MSD
Chain of IRAK4 (Q9NWZ3 whole entry): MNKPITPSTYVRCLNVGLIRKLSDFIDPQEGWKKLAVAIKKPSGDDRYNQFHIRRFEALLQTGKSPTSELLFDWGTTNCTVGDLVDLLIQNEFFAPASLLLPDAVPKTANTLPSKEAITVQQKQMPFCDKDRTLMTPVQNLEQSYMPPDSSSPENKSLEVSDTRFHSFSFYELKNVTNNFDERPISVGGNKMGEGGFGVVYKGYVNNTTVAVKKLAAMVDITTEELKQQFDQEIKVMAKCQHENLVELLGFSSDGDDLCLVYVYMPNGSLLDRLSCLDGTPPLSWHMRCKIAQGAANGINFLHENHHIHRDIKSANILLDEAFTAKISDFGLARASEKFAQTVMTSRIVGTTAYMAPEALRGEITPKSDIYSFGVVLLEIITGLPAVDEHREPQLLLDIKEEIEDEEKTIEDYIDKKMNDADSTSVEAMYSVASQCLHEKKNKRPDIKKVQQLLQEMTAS
Summary of the method: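 Remaining IRAK4 quantified by electrochemiluminescent MSD sandwich assay with two anti-IRAK4 antibodies. Compounds were dosed as 8 concentrations in 1:3 steps from a 1 to 10 μM final top on OCI-LY10 cells, incubated 4 to 24 h at 37° C. under 5% CO2. DC50 fitted with a three-parameter logistic curve.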

[1] = OCI-LY10, 4 hrs, read-out: IRAK4 MSD degradation in OCI-LY10 at 4 hrs: Average external-Abs DC50
[2] = OCI-LY10, 24 hrs, read-out: IRAK4 MSD degradation in OCI-LY10 at 24 hrs: Average external-Abs DC50

Compound	IC50 (OCI-LY10; Homo sapiens, OCI-Ly10, 96 h) [nM]	DC50 (IRAK4; [1]) [nM]	DC50 (IRAK4; [2]) [nM]	IC50 (OCI-LY10) [nM]
O=C1CCC(N2C(=O)c3cccc(NCCOC4CCN(C[C@H]5CC[C@H](n6cc(NC(=O)c7cnn8ccc(N9CCOCC9)nc78)c(C(F)F)n6)CC5)CC4)c3C2=O)C(=O)N1 (some centres unmarked) [I-210]	> 1000	10 to 100	10 to 100	–
Cc1nc2cccc(NCCCOC3CCN(C[C@H]4CC[C@H](n5cc(NC(=O)c6cnn7ccc(N8CCOCC8)nc67)c(C(F)F)n5)CC4)CC3)c2c(=O)n1C1CCC(=O)NC1=O (some centres unmarked) [I-211]	50 to 100	> 1000	> 1000	–
CN(CCCOC1CCN(C[C@H]2CC[C@H](n3cc(NC(=O)c4cnn5ccc(N6CCOCC6)nc45)c(C(F)F)n3)CC2)CC1)c1cccc2c1C(=O)N(C1CCC(=O)NC1=O)C2=O (some centres unmarked) [I-212]	> 1000	10 to 100	–	–
CN(C[C@H]1CC[C@H](n2cc(NC(=O)c3cnn4ccc(N5CCOCC5)nc34)c(C(F)F)n2)CC1)C1CCN(Cc2cccc3c2n(C)c(=O)n3C2CCC(=O)NC2=O)CC1 (some centres unmarked) [I-213]	> 1000	< 10	–	–
Cc1nc2cccc(N(C)CCCOC3CCN(C[C@H]4CC[C@H](n5cc(NC(=O)c6cnn7ccc(N8CCOCC8)nc67)c(C(F)F)n5)CC4)CC3)c2c(=O)n1C1CCC(=O)NC1=O (some centres unmarked) [I-214]	> 1000	> 1000	> 1000	–
Cc1nc2cccc(OCCCOC3CCN(C[C@H]4CC[C@H](n5cc(NC(=O)c6cnn7ccc(N8CCOCC8)nc67)c(C(F)F)n5)CC4)CC3)c2c(=O)n1C1CCC(=O)NC1=O (some centres unmarked) [I-215]	> 1000	> 1000	> 1000	–
Cn1c(=O)n(C2CCC(=O)NC2=O)c2cccc(CCCOC3CCN(C[C@H]4CC[C@H](n5cc(NC(=O)c6cnn7ccc(N8CCOCC8)nc67)c(C(C)(C)O)n5)CC4)CC3)c21 (some centres unmarked) [I-216]	> 1000	100 to 1000	–	–
CC(C)(O)c1nn([C@H]2CC[C@H](CN3CCC(OCCNc4cccc5c4C(=O)N(C4CCC(=O)NC4=O)C5=O)CC3)CC2)cc1NC(=O)c1cnn2ccc(N3CCOCC3)nc12 (some centres unmarked) [I-217]	50 to 100	100 to 1000	> 1000	–
O=C1CCC(N2C(=O)c3cccc(NC4CCN(C[C@H]5CC[C@H](n6cc(NC(=O)c7cnn8ccc(N9CCOCC9)nc78)c(C(F)F)n6)CC5)CC4)c3C2=O)C(=O)N1 (some centres unmarked) [I-218]	> 1000	100 to 1000	100 to 1000	–
CC[C@@H]1CC(=O)N[C@@H]1COc1ncc(C#C[C@H]2CC[C@H](CN(C)CCCOCCCc3cccc4c3n(C)c(=O)n4C3CCC(=O)NC3=O)CC2)c2cc(C(N)=O)c(OC)cc12 (some centres unmarked) [I-219]	> 1000	10 to 100	10 to 100	–
CN(CC1CCN(c2cccc3c2C(=O)N(C2CCC(=O)NC2=O)C3=O)CC1)C[C@H]1CC[C@H](n2cc(NC(=O)c3cnn4ccc(N5CCOCC5)nc34)c(C(F)F)n2)CC1 (some centres unmarked) [I-220]	> 1000	> 1000	100 to 1000	–
CN(C[C@H]1CC[C@H](n2cc(NC(=O)c3cnn4ccc(N5CCOCC5)nc34)c(C(F)F)n2)CC1)C1CCC(Nc2cccc3c2C(=O)N(C2CCC(=O)NC2=O)C3=O)CC1 (some centres unmarked) [I-221]	50 to 100	< 10	–	–
CN(C[C@H]1CC[C@H](n2cc(NC(=O)c3cnn4ccc(N5CCOCC5)nc34)c(C(F)F)n2)CC1)C1CCC(N(C)c2cccc3c2C(=O)N(C2CCC(=O)NC2=O)C3=O)CC1 (some centres unmarked) [I-222]	100 to 500	10 to 100	–	–
CN(CCC1CCN(c2cccc3c2C(=O)N(C2CCC(=O)NC2=O)C3=O)CC1)C[C@H]1CC[C@H](n2cc(NC(=O)C3CNN4C=CC(N5CCOCC5)=NC34)c(C(F)F)n2)CC1 (some centres unmarked) [I-223]	> 1000	10 to 100	–	–
CN(CCN1CCN(c2cccc3c2C(=O)N(C2CCC(=O)NC2=O)C3=O)CC1)C[C@H]1CC[C@H](n2cc(NC(=O)C3CNN4C=CC(N5CCOCC5)=NC34)c(C(F)F)n2)CC1 (some centres unmarked) [I-224]	> 1000	100 to 1000	–	–
CN(CCCN1CCN(c2cccc3c2C(=O)N(C2CCC(=O)NC2=O)C3=O)CC1)C[C@H]1CC[C@H](n2cc(NC(=O)c3cnn4ccc(N5CCOCC5)nc34)c(C(F)F)n2)CC1 (some centres unmarked) [I-225]	> 1000	10 to 100	–	–
O=C1CCC(N2C(=O)c3cccc(NCCCOCCCN4CCC(n5cc(NC(=O)c6cnn7ccc(N8CCOCC8)nc67)c(C(F)F)n5)CC4)c3C2=O)C(=O)N1 (centres unmarked) [I-226]	< 50	100 to 1000	10 to 100	–

Compound	IC50 (OCI-LY10; Homo sapiens, OCI-Ly10, 96 h) [nM]	DC50 (IRAK4; [1]) [nM]	DC50 (IRAK4; [2]) [nM]	IC50 (OCI-LY10) [nM]
O=C1CCC(N2C(=O)c3cccc(N4CCC(CCN5CCC(n6cc(NC(=O)c7cnn8ccc(N9CCOCC9)nc78)c(C(F)F)n6)CC5)CC4)c3C2=O)C(=O)N1 (centres unmarked) [I-227]	< 50	100 to 1000	–	–
O=C1CCC(N2C(=O)c3cccc(N4CCC(CCCN5CCC(n6cc(NC(=O)c7cnn8ccc(N9CCOCC9)nc78)c(C(F)F)n6)CC5)CC4)c3C2=O)C(=O)N1 (centres unmarked) [I-228]	> 1000	> 1000	–	–
CC[C@@H]1[C@H](F)C(=O)N[C@@H]1COc1ncc(C#C[C@H]2CC[C@@H](CN(C)CCCOCCCc3ccc4c(c3)n(C)c(=O)n4C3CCC(=O)NC3=O)CC2)c2cc(C(N)=O)c(OC)cc12 (some centres unmarked) [I-230]	> 1000	100 to 1000	100 to 1000	–
CN(CCCNc1cccc2c1C(=O)N(C1CCC(=O)NC1=O)C2=O)C1CCN(C[C@H]2CC[C@H](n3cc(NC(=O)c4cnn5ccc(N6CCOCC6)nc45)c(C(F)F)n3)CC2)CC1 (some centres unmarked) [I-231]	< 50	10 to 100	–	–
O=C1CCC(N2C(=O)c3cccc(NC4CCN(C5CCN(C[C@H]6CC[C@H](n7cc(NC(=O)c8cnn9ccc(N%10CCOCC%10)nc89)c(C(F)F)n7)CC6)CC5)CC4)c3C2=O)C(=O)N1 (some centres unmarked) [I-232]	< 50	< 10	–	–
Cn1c(=O)n(C2CCC(=O)NC2=O)c2cccc(CN3CC4(CCN(C[C@H]5CC[C@H](n6cc(NC(=O)c7cnn8ccc(N9CCOCC9)nc78)c(C(F)F)n6)CC5)CC4)C3)c21 (some centres unmarked) [I-233]	100 to 500	< 10	–	–
CC[C@@H]1[C@H](F)C(=O)N[C@@H]1COc1ncc(C#CC2CCN(CCCC3CCN(c4cccc5c4C(=O)N(C4CCC(=O)NC4=O)C5=O)CC3)CC2)c2cc(C(N)=O)c(OC)cc12 (some centres unmarked) [I-234]	> 1000	100 to 1000	10 to 100	–
NCCCOCCCNC[C@H]1CC[C@H](n2cc(NC(=O)c3coc(-c4ccnc(NCC5CC5)c4)n3)c(C(F)F)n2)CC1 [I-235]	> 1000	> 1000	> 1000	–
CN(CC1CCN(c2ccc3c(c2)n(C)c(=O)n3C2CCC(=O)NC2=O)CC1)C[C@H]1CC[C@H](n2cc(NC(=O)c3coc(-c4ccnc(NCC5CC5)c4)n3)c(C(F)F)n2)CC1 (some centres unmarked) [I-236]	> 1000	< 10	–	–
CN(CCOCCNCc1cccc2c1n(C)c(=O)n2C1CCC(=O)NC1=O)C[C@H]1CC[C@H](n2cc(NC(=O)c3coc(-c4ccnc(NCC5CC5)c4)n3)c(C(F)F)n2)CC1 (some centres unmarked) [I-237]	> 1000	< 10	–	–
CN1C(=O)C(C2CCC(=O)NC2=O)c2ccc(CN3CCC(N(C)C[C@H]4CC[C@H](n5cc(NC(=O)c6coc(-c7ccnc(NCC8CC8)c7)n6)c(C(F)F)n5)CC4)CC3)cc21 (some centres unmarked) [I-239]	–	10 to 100	–	> 1000
CN(C[C@H]1CC[C@H](n2cc(NC(=O)c3coc(-c4ccnc(NCC5CC5)c4)n3)c(C(F)F)n2)CC1)C1CN(Cc2cccc3c2n(C)c(=O)n3C2CCC(=O)NC2=O)C1 (some centres unmarked) [I-240]	> 1000	< 10	–	–
CN(C[C@H]1CC[C@H](n2cc(NC(=O)c3coc(-c4ccnc(NCC5CC5)c4)n3)c(C(F)F)n2)CC1)C1CCN(Cc2ccnc3c2c2ccccc2n3C2CCC(=O)NC2=O)CC1 (some centres unmarked) [I-241]	500 to 1000	10 to 100	–	–
CN(CCCN(C)C[C@H]1CC[C@H](n2cc(NC(=O)c3coc(-c4ccnc(NCC5CC5)c4)n3)c(C(F)F)n2)CC1)Cc1cccc2c1n(C)c(=O)n2C1CCC(=O)NC1=O (some centres unmarked) [I-242]	500 to 1000	< 10	–	–
Cn1c(=O)n(C2CCC(=O)NC2=O)c2ccc(CN3CCN(C[C@H]4CC[C@H](n5cc(NC(=O)c6coc(-c7ccnc(NCC8CC8)c7)n6)c(C(F)F)n5)CC4)CC3)cc21 (some centres unmarked) [I-243]	> 1000	< 10	–	–
Cn1c(=O)n(C2CCC(=O)NC2=O)c2cccc(CN3CCC4(CC3)CN(C[C@H]3CC[C@H](n5cc(NC(=O)c6coc(-c7ccnc(NCC8CC8)c7)n6)c(C(F)F)n5)CC3)C4)c21 (some centres unmarked) [I-244]	100 to 500	< 10	–	–
Cn1c(=O)n(C2CCC(=O)NC2=O)c2cccc(CN3CCC4(CC3)CCN(C[C@H]3CC[C@H](n5cc(NC(=O)c6coc(-c7ccnc(NCC8CC8)c7)n6)c(C(F)F)n5)CC3)CC4)c21 (some centres unmarked) [I-245]	< 50	10 to 100	–	–
